This is an account of results in patent publication US20250230193A1, “CYCLIC COMPOUND HAVING SELECTIVE KRAS INHIBITORY EFFECT ON HRAS AND NRAS” (CHUGAI SEIYAKU KABUSHIKI KAISHA, priority 2022, published 2025).

Assay [1] deals with human lung cancer strain NCI-H441. Put plainly: cells. As to conditions: NCI-H441, 96 h, read-out: NCI-H441 IC50 (nM).
Assay [2] deals with GDP-bound HRAS wild-type protein (Homo sapiens, UniProt P01112). As to the kind of experiment: Binding to HRAS by surface plasmon resonance (SPR), Single Cycle Kinetics. As to conditions: SPR; KD ratio class. (In SPR one partner is held on a chip, and binding of the other changes the refractive index at the surface.)
GDP-bound HRAS wild-type protein, sequence (P01112 whole entry): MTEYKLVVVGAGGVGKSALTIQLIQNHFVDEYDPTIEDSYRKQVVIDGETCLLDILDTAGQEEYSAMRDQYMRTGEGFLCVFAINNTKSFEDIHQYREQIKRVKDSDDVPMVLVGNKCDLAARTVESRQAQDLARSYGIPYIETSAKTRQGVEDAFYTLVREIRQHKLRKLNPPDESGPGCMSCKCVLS
In assay [3] the target is GDP-bound NRAS wild-type protein (Homo sapiens, UniProt P01111). Put plainly: Binding to NRAS by surface plasmon resonance (SPR), Single Cycle Kinetics. The following applies: SPR; KD ratio class.
GDP-bound NRAS wild-type protein, sequence (P01111 whole entry): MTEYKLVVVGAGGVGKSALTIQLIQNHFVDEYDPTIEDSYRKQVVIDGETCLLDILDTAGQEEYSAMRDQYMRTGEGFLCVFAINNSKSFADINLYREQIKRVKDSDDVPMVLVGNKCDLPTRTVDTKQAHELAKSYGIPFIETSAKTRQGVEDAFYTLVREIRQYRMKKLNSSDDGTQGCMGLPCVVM

By IC50 is commonly meant the concentration that inhibits the measured activity by half. In the case of `CCC[C@H]1C(=O)N[C@@H]([C@@H](C)CC)C(=O)N(C)CC(=O)N(C)[C@H]2C/C=C\CCN(C2=O)[C@@H](Cc2ccc(C(F)(F)F)cc2)C(=O)N(C)CC(=O)N[C@@H](CCc2ccc3sccc3c2)C(=O)N2C[C@H](OCC)C[C@H]2C(=O)NC2(CCC2)C(=O)N(C)[C@@H](C2CCCC2)C(=O)N(C)[C@H](C(=O)N(C)C)CC(=O)N1C` [PP1256], in assay [1], the IC50 amounted to 69 nM. The “HRAS/KRAS (ratio of KD value for GDP-bound HRAS wild-type protein to KD value for KRAS)” value in assay [2] was “A (a compound having 10 or more and less than 20 is denoted as A)”. Also, the “NRAS/KRAS (ratio of KD value for GDP-bound NRAS wild-type protein to KD value for KRAS)” value in assay [3] was “A (a compound having 10 or more and less than 20 is denoted as A)”.
In the case of `CCO[C@@H]1C[C@H]2C(=O)NC3(CCC3)C(=O)N(C)[C@@H](C3CCCC3)C(=O)N(C)[C@H](C(=O)N(C)C)CC(=O)N(C)[C@@H](CC3CC3)C(=O)N[C@@H]([C@@H](C)CC)C(=O)N(C)CC(=O)N(C)[C@H]3C/C=C\CCN(C3=O)[C@@H](Cc3ccc(C)cc3)C(=O)N(C)CC(=O)N[C@@H](CCc3cc(F)c(Cl)c(F)c3)C(=O)N2C1` [PP1484], the IC50 in assay [1] came out at 59.3 nM. In addition, the “HRAS/KRAS (ratio of KD value for GDP-bound HRAS wild-type protein to KD value for KRAS)” value in assay [2] was “A (a compound having 10 or more and less than 20 is denoted as A)”. Also, the “NRAS/KRAS (ratio of KD value for GDP-bound NRAS wild-type protein to KD value for KRAS)” value in assay [3] is “A (a compound having 10 or more and less than 20 is denoted as A)”.
Take `CCO[C@@H]1C[C@H]2C(=O)NC3(CCC3)C(=O)N(C)[C@@H](C3CCCC3)C(=O)N(C)[C@H](C(=O)N(C)C)CC(=O)N(C)[C@@H](CC3CCCC3)C(=O)N[C@@H]([C@@H](C)CC)C(=O)N(C)CC(=O)N(C)[C@H]3C/C=C\CCN(C3=O)[C@@H](Cc3ccc(C(F)(F)F)cc3)C(=O)N(C)CC(=O)N[C@@H](CCc3cc(F)c(Cl)c(F)c3)C(=O)N2C1` [PP1264]: the IC50 in assay [1] was determined as 15.9 nM. Moreover, the “HRAS/KRAS (ratio of KD value for GDP-bound HRAS wild-type protein to KD value for KRAS)” value in assay [2] was “B (a compound having 3 or more and less than 10 is denoted as B)”. Further, the “NRAS/KRAS (ratio of KD value for GDP-bound NRAS wild-type protein to KD value for KRAS)” value in assay [3] was “A (a compound having 10 or more and less than 20 is denoted as A)”.
As for `CCO[C@@H]1C[C@H]2C(=O)NC3(CCC3)C(=O)N(C)[C@@H](C(CC)CC)C(=O)N(C)[C@H](C(=O)N3CCOCC3)CC(=O)N(C)[C@@H](CC)C(=O)N[C@@H]([C@@H](C)CC)C(=O)N(C)CC(=O)N(C)[C@H]3C/C=C\CCN(C3=O)[C@@H](Cc3ccc(C(F)(F)F)cc3)C(=O)N(C)CC(=O)N[C@@H](CCc3cc(F)c(C(F)(F)F)c(F)c3)C(=O)N2C1` [PP1286], the IC50 in assay [1] came out at 58.8 nM. Besides, the “HRAS/KRAS (ratio of KD value for GDP-bound HRAS wild-type protein to KD value for KRAS)” value in assay [2] is “A (a compound having 10 or more and less than 20 is denoted as A)”. Moreover, in assay [3], the “NRAS/KRAS (ratio of KD value for GDP-bound NRAS wild-type protein to KD value for KRAS)” value is “AA (a compound having 20 or more is denoted as AA)”.
Turning to `CCO[C@@H]1C[C@H]2C(=O)NC3(CCC3)C(=O)N(C)[C@@H](C(CC)CC)C(=O)N(C)[C@H](C)CC(=O)N(C)[C@@H](CC(C)C)C(=O)N[C@@H]([C@@H](C)CC)C(=O)N(C)CC(=O)N(C)[C@H]3C/C=C\CCN(C3=O)[C@@H](Cc3ccc(F)cc3C)C(=O)N(C)CC(=O)N[C@@H](CCc3cc(F)c(C(F)(F)F)c(F)c3)C(=O)N2C1` [PP1524], the half-maximal inhibitory concentration (IC50) in assay [1] is 439 nM. For the same molecule, the “HRAS/KRAS (ratio of KD value for GDP-bound HRAS wild-type protein to KD value for KRAS)” value in assay [2] is “B (a compound having 3 or more and less than 10 is denoted as B)”. Further, in assay [3], the “NRAS/KRAS (ratio of KD value for GDP-bound NRAS wild-type protein to KD value for KRAS)” value is “B (a compound having 3 or more and less than 10 is denoted as B)”.
On to `CCO[C@@H]1C[C@H]2C(=O)NC3(CCC3)C(=O)N(C)[C@@H](C(CC)CC)C(=O)N(C)[C@H](C(=O)N(C)C)CC(=O)N(C)[C@@H](CC)C(=O)N[C@@H]([C@@H](C)CC)C(=O)N(C)CC(=O)N(C)[C@H]3C/C=C\CCN(C3=O)[C@@H](Cc3ccc(C(F)(F)F)cc3)C(=O)N(C)CC(=O)N[C@@H](CCc3ccc4sccc4c3)C(=O)N2C1` [PP1223], for which the IC50 in assay [1] is 117 nM. For the same molecule, the “HRAS/KRAS (ratio of KD value for GDP-bound HRAS wild-type protein to KD value for KRAS)” value in assay [2] was “A (a compound having 10 or more and less than 20 is denoted as A)”. For the same molecule, in assay [3], the “NRAS/KRAS (ratio of KD value for GDP-bound NRAS wild-type protein to KD value for KRAS)” value is given as “AA (a compound having 20 or more is denoted as AA)”.
